≈ marks a conversion by molar mass, not a printed value. Read-outs that look alike come from different tables or passages of the source.

Experiment [1] deals with SARS-CoV-2 (isolate 30-287). As to the kind of experiment: microbe, parasite or virus in culture. The note with it: Severe acute respiratory syndrome coronavirus 2, Vero C1008, VERO E6 cells, 96 hours, read-out: IC50, synthesis of new viral RNA. In kind it is cell-based.
Experiment [2] concerns Influenza A/FM/1/47/H1N1. As to the kind of experiment: plaque-reduction assay in MDCK-II cells. In kind it is cell-based, human Influenza A/FM/1/47/H1N1 strain. The following applies: 72 hours, all concentrations above 200 ng/mL. The method, then:
(§1) All assays in Examples 1, 2, 4 and 5 were performed with the human Influenza A/FM/1/47/H1N1 strain, and canine MDCK-II cells, whilst in Example 7 VERO E6 monkey kidney cells were used.
The antiviral activity of p-cymene in Influenza A/FM/1/47/H1N1 was assayed in a plaque-reduction assay (expressed in forming plaques).
Canine MDCK-II cells were seeded into 6-well plastic plates and cultured at 37° C. under 5% CO2 for 24 hours. The MDCK-II cells were then inoculated with Influenza A/FM/1/47/H1N1 for 2 hours, after which the infected cells were washed and cultured for 72 hours at 37° C. under 5% CO2 in the presence of different concentrations of p-cymene in Minimum Essential Medium (MEM). Ribavirin was used as a control at a concentration of 25 μM.
After incubation, the virus-infected cells were observed microscopically. After 3 days of infection, cells were fixed with paraformaldehyde and cell monolayers were stained with crystal violet.

In experiment [3] the test system is influenza virus A/FM/1/47. As to the kind of experiment: intracellular viral nucleoprotein (NP) by Western Blot Analysis in infected cells. In kind it is cell-based, human Influenza A/FM/1/47/H1N1 strain. The note with it: p-cymene 200 ng/mL; 7, 10 and 24 hours after infection. The method, then:
as §1
Intracellular viral nucleoprotein (NP) concentration was quantified by Western Blot Analysis at 7, 10 and 24 hours after infection.
A six-well culture plate was seeded with cells, which were then incubated at 37° C. for 24 hours under 5% CO2. The cells were infected with influenza virus A/FM/1/47 at 37° C. for 1 hour and then p-cymene was added (200 ng/mL). The cells were harvested at the indicated time periods (7h, 10h and 24h). The lysates were incubated for 20 min on ice and then centrifuged at 14,000×g for 10 min at 4° C. The supernatants were collected and equal amounts of proteins were resolved by sodium dodecyl sulfate (10%) polyacrylamide gel electrophoresis.
Background: A western blot detects proteins with antibodies after separation by electrophoresis.

The subject of experiment [4] is Influenza A/FM/1/47/H1N1. In words: virus titer of supernatants of infected MDCK-II cells (plaque titration). In kind it is cell-based, human Influenza A/FM/1/47/H1N1 strain. The method, then: as §1
MDCK-II cells in Minimal Essential Medium (MEM) were seeded into a 6-well plate and incubated at 37° C. The following day, the cells were infected with influenza A/FM/1/47/H1N1 and incubated at 37° C. for 2 hours, followed by washing extensively with serum free MEM.
The infected cells were then cultured in media supplemented with varying concentrations of Compound A at 37° C. for 24 to 48 hours. Supernatants of the infected cells, containing the newly synthesised virions, were harvested and titrated in MDCK-II cells. Upon plaque formation, the infected cells were washed with phosphate-buffered saline (PBS) and fixed with paraformaldehyde. Cell monolayers were stained with crystal violet and observed microscopically.

Experiment [5] deals with influenza virus A/FM/1/47/H1N1. As to the kind of experiment: Real-Time PCR of newly synthesized viral RNA (M1 genome copies) in infected MDCK-II cells. The class given is cell-based, human Influenza A/FM/1/47/H1N1 strain. The note with it: 12 hours. The method, then:
as §1
MDCK-II cells were plated in 12-well plates. After overnight incubation, the cells were washed with phosphate-buffer saline (PBS) and infected with influenza virus A/FM/1/47/H1N1) for 2 hours at 37° C.
The inoculum was then removed and the cells were incubated with MEM containing various concentrations of Compound A for 12 hours.
Background: Real-time PCR tracks product formation cycle by cycle.

Where [6] appears, read: pre-incubation (2 hours before infection).

As a reminder, the IC50 is the concentration that inhibits the measured activity by half. Consider `Cc1ccc(C(C)C)cc1` [p-cymene], for which the IC50 was found to be 83 µg/mL in experiment [1] (co-incubation) and 59 µg/mL (≈ 440 µM) in experiment [1] (setting [6]). For the same molecule, the “plaque formation (number of forming plaques)” value with Influenza A/FM/1/47/H1N1 [2] was “significant, dose-dependent decrease of plaque formation”. Also, the “amount of intracellular viral nucleoprotein (NP)” value in experiment [3] is “significantly decreased”.
On to `CCCOCC(CC)c1ccc(C)cc1` (stereo not shown) [Compound A], for which the IC50 in experiment [1] (co-incubation) turned out to be 38 µg/mL; in experiment [1] (setting [6]), 9 µg/mL (≈ 43.6 µM). In addition, the virus titer entry with Influenza A/FM/1/47/H1N1 [4] (MDCK-II cells, 24 and 48 hpi, varying concentrations) is given as “significantly decreased virus titer”. For the same molecule, the “anti-viral action (conclusion of the in vitro studies)” value in the experiment on Influenza A/FM/1/47/H1N1 [4] (compared with ribavirin) is recorded as “significant anti-viral action, comparable with that of ribavirin”. The “synthesis of new viral RNA” value in experiment [5] (all concentrations tested) was “inhibits”. Besides, the “viral M1 genome copy numbers” value in experiment [5] (nuclear RNA) is recorded as “decreased”.

The values are drawn from patent US20230101903A1, “COMPOUNDS USEFUL AS ANTI-VIRAL AGENTS” (NATURE CRETE PHARMACEUTICALS PC, priority 2020, published 2023).
